We go through 13 compounds from ChEMBL document CHEMBL4041523, “Design, synthesis, and evaluation of asymmetric EF24 analogues as potential anti-cancer agents for lung cancer” (Eur J Med Chem, 2017).

In general, IC50 refers to the midpoint of a concentration-inhibition curve.

Activity calls are given as the source filed them. The calls are words filed in the database; no cut-off is given here.

The test system of test [1] is A549. As to the kind of experiment: Cytotoxicity against human A549 cells measured after 72 hrs by MTT assay. It is filed as functional, cell-based. To be noted: for IC50: A549, 72 h. (In general: Formazan colour is commonly taken as a measure of viable cells.)
In a further test the test system is NCI-H1650. The test can be described thus: Cytotoxicity against human NCI-H1650 cells measured after 72 hrs by MTT assay. It is filed as functional, cell-based. To be noted: NCI-H1650, 72 h.
In test [2] the test system is Lewis lung carcinoma cell line. The test can be described thus: Cytotoxicity against mouse LLC cells measured after 72 hrs by MTT assay. It is filed as functional, cell-based.
The test system of test [3] is A549. The test can be described thus: Induction of apoptosis in human A549 cells at 20 uM measured after 48 hrs by Annexin-V-FITC/propidium iodide staining based flow cytometry (reference value: 5.91 %). Type of test: functional.
The test system of test [4] is A549. The test can be described thus: Induction of apoptosis in human A549 cells assessed as ROS production at 10 uM in presence of ROS inhibitor NAC measured after 12 hrs by DCFH-DA staining based flow cytometry (reference value: 7.19 %). It is filed as functional. (A flow cytometer gives signals particle by particle.)
Test [5] concerns A549. The test can be described thus: Induction of apoptosis in human A549 cells assessed as increase in cleaved caspase-3 level at 20 uM measured after 24 hrs by Western blot analysis. It is filed as functional, cell-based.
In test [6] the test system is A549. As to the kind of experiment: Induction of apoptosis in human A549 cells assessed as chromatin condensation measured after 72 hrs by Hoechst 33258 staining based fluorescent microscopic analysis. It is filed as functional, cell-based.
The target in test [7] is Transcription factor p65 (Homo sapiens) (UniProt Q04206). As to the kind of experiment: Inhibition of TNF-alpha stimulated P65 nuclear translocation in human A549 cells at 10 uM pretreated for 2 hrs followed by TNF-alpha induction measured after 20 mins DAPI-staining based assay. It is filed as cell-based.
The test system of test [8] is A549. The test can be described thus: Induction of apoptosis in human A549 cells assessed as reduction in Bcl-2 expression measured after 24 hrs by Western blot analysis. Type of test: functional, cell-based. On the technique in general: A western blot detects proteins with antibodies after separation by electrophoresis.
Test [9] deals with T1, c-Jun N-terminal kinase, JNK (Homo sapiens) (UniProt P45983+P53779+P45984). As to the kind of experiment: Induction of ROS-induced JNK phosphorylation in human A549 cells at 10 uM in presence of ROS inhibitor NAC measured after 24 hrs Western blot analysis. Type of test: cell-based.
In test [10] the test system is A549. The test can be described thus: Induction of apoptosis in human A549 cells at 10 uM measured after 48 hrs by Annexin-V-FITC/propidium iodide staining based flow cytometry (reference value: 5.91 %). It is filed as functional.
The subject of test [11] is A549. The test can be described thus: Induction of apoptosis in human A549 cells assessed as cell shrinkage measured after 72 hrs by Hoechst 33258 staining based fluorescent microscopic analysis. It is filed as functional.
The test system of test [12] is A549. The test can be described thus: Induction of apoptosis in human A549 cells assessed as reduction in Bcl-2 expression at 10 uM in presence of ROS inhibitor NAC measured after 24 hrs Western blot analysis. Type of test: functional, cell-based.
In test [13] the test system is A549. The test can be described thus: Induction of apoptosis in human A549 cells assessed as increase in Bax expression measured after 24 hrs by Western blot analysis. Type of test: functional, cell-based.
In test [14] the target is T2, NF-kappa-B inhibitor alpha (Homo sapiens) (UniProt P25963).
T2 sequence (whole entry): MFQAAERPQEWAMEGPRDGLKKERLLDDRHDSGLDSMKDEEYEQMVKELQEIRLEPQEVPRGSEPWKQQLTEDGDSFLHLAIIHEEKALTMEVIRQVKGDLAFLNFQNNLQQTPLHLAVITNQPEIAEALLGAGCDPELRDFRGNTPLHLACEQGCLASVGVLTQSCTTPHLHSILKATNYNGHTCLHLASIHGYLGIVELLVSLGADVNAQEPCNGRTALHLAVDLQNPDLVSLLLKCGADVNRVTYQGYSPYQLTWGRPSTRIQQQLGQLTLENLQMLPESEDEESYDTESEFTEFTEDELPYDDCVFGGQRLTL
As to the kind of experiment: Inhibition of TNF-alpha induced IkappaBalpha degradation in human A549 cells measured after 24 hrs by Western blot analysis. Type of test: cell-based.

Test [15] concerns A549. The test can be described thus: Anti-migratory activity against human A549 cells assessed as reduction in cell migration at 10 uM measured after 24 to 72 hrs by wound healing assay relative to control. It is filed as functional. Details: scale not given: the % may be the effect or the level left.
Test [16] has as its system A549. The test can be described thus: Induction of apoptosis in human A549 cells assessed as formation of apoptotic bodies measured after 72 hrs by Hoechst 33258 staining based fluorescent microscopic analysis. Type of test: functional, cell-based.
The target in test [17] is T1, c-Jun N-terminal kinase, JNK (Homo sapiens). The test can be described thus: Induction of ROS-induced JNK phosphorylation in human A549 cells at 10 uM measured after 24 hrs by Western blot analysis. It is filed as cell-based.
Test [18] relates to A549. The test can be described thus: Induction of apoptosis in human A549 cells assessed as increase in Bax expression at 10 uM in presence of ROS inhibitor NAC measured after 24 hrs Western blot analysis. Type of test: functional, cell-based.
Test [19] concerns A549. The test can be described thus: Induction of apoptosis in human A549 cells measured after 48 hrs by Annexin-V-FITC/propidium iodide staining based flow cytometry. Type of test: functional, cell-based.
The subject of test [20] is A549. As to the kind of experiment: Induction of apoptosis in human A549 cells at 5 uM measured after 48 hrs by Annexin-V-FITC/propidium iodide staining based flow cytometry (reference value: 5.91 %). It is filed as functional.
Test [21] concerns A549. As to the kind of experiment: Induction of apoptosis in human A549 cells assessed as increase in Bax expression at 10 uM measured after 24 hrs Western blot analysis. Type of test: functional, cell-based.
The subject of test [22] is A549. The test can be described thus: Anti-migratory activity against human A549 cells assessed as reduction in cell migration measured after 24 to 72 hrs by wound healing assay. It is filed as functional, cell-based.
In test [23] the test system is A549. The test can be described thus: Induction of apoptosis in human A549 cells assessed as increase in ROS production at 10 uM by DCFH-DA staining based flow cytometry. Particulars: TDE = time-dependent effect. Type of test: functional, cell-based.
In test [24] the test system is A549. The test can be described thus: Anti-migratory activity against human A549 cells assessed as reduction in cell migration at 5 uM measured after 24 to 72 hrs by wound healing assay relative to control. Type of test: functional. Details: scale not given: the % may be the effect or the level left.
Test [25] concerns A549. As to the kind of experiment: Induction of apoptosis in human A549 cells assessed as ROS production at 10 uM measured after 12 hrs by DCFH-DA staining based flow cytometry (reference value: 7.19 %). Type of test: functional.
In test [26] the test system is A549. As to the kind of experiment: Induction of apoptosis in human A549 cells assessed as reduction in Bcl-2 expression at 10 uM measured after 24 hrs Western blot analysis. It is filed as functional, cell-based.
Test [27] deals with A549. The test can be described thus: Anti-migratory activity against human A549 cells assessed as reduction in cell migration at 20 uM measured after 24 to 72 hrs by wound healing assay relative to control. Type of test: functional. Details: scale not given: the % may be the effect or the level left.
Test [28] relates to A549. As to the kind of experiment: Antiproliferative activity against human A549 cells assessed as reduction in colony formation measured after 7 days by crystal violet staining based assay. It is filed as functional, cell-based.

Chain of Transcription factor p65 (Homo sapiens) (Q04206 whole entry): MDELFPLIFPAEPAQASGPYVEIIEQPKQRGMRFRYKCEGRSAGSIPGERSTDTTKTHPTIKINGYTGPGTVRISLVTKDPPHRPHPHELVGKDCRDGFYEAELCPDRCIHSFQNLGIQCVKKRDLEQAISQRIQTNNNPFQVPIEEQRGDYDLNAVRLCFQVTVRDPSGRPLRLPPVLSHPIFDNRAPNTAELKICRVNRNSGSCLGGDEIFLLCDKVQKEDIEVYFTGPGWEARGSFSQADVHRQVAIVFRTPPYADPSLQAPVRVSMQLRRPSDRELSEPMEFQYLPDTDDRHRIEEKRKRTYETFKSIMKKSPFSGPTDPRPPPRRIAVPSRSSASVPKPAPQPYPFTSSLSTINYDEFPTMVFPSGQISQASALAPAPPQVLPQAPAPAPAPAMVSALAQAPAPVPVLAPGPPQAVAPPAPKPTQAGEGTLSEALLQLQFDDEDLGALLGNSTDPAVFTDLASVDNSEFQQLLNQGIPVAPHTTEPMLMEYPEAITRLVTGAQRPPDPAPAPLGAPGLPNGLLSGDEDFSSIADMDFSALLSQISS

In the case of `O=C1/C(=C/c2ccccc2F)CNC/C1=C\c1ccccc1F`, the IC50 was 7.1 µM in the test with A549 [1], 14.6 µM with NCI-H1650 and 8.4 µM in test [2].
As to `O=C1/C(=C/c2ccccc2F)COC/C1=C\c1ccc(Cl)cc1Cl`, the IC50 turned out to be 7.9 µM in the test on A549 [1], 8.6 µM in the test with NCI-H1650 and 29.4 µM in test [2].
For `Cc1ccc2nc(NCCN)c3ncc(C)n3c2c1` [BMS-345541], the IC50 with A549 [1] was found to be 5.6 µM; with NCI-H1650, 19.9 µM; in [2] it was 4.8 µM. In the test with A549 [3], this compound returned an Activity of 16.57%.
Take `COc1cc(/C=C2\COC/C(=C\c3ccccc3F)C2=O)ccc1O`: the IC50 in the test on A549 [1] stood at 21.4 µM; in the test with NCI-H1650, 18.5 µM; in [2] it was 13.1 µM.
In the same order, the values of `O=C1/C(=C/c2ccccc2)COC/C1=C\c1ccccc1F` are 17.6 µM, 9.6 µM and 16 µM.
Take `O=C1/C(=C/c2cccc(O)c2)COC/C1=C\c1ccccc1F`: the IC50 was found to be 7.4 µM with A549 [1], 5.7 µM with NCI-H1650 and 13.8 µM in test [2].
Consider `O=C1/C(=C/c2ccccc2F)COC/C1=C\c1ccccc1C(=O)O`, for which the IC50 with A549 [1] worked out at 27.9 µM; in the test on NCI-H1650, 15.2 µM; in [2], 17.2 µM.
As for `COc1ccc(OC)c(/C=C2\COC/C(=C\c3ccccc3F)C2=O)c1`, the IC50 is 8.7 µM in the test with A549 [1], 6.8 µM in the test on NCI-H1650 and 15.1 µM in [2].
In the case of `COc1cc(/C=C/C(=O)CC(=O)/C=C/c2ccc(O)c(OC)c2)ccc1O` [CURCUMIN], the IC50 was determined as 27.8 µM in the test on A549 [1], 20.7 µM with NCI-H1650 and 24.7 µM in test [2].
In the same order, the values of `COc1ccccc1/C=C1\COC/C(=C\c2ccccc2F)C1=O` are 5.9 to 11.7 µM, 6.5 to 17.6 µM and 15.4 to 17.7 µM.
For the compound `COc1ccc(/C=C2\COC/C(=C\c3ccccc3F)C2=O)cc1O`, the IC50 with A549 [1] came to 13.8 µM; with NCI-H1650, 7.5 µM; in [2], 9.6 µM.
On to `O=C1/C(=C/c2ccccc2F)COC/C1=C\c1ccccc1Br`, for which the IC50 in the test with A549 [1] turned out to be 6.5 µM; in the test on NCI-H1650, 6.5 µM; in [2], 13.3 µM.
For `COc1cc(/C=C2\COC/C(=C\c3ccccc3F)C2=O)cc(OC)c1OC`, the Activity result in the test on A549 [1] is “Dose-dependent effect”; in the test with A549 [4], 5.19%; in the test with A549 [6] it was “Dose-dependent effect”; with A549 [8] it was “Dose-dependent effect”; in the test on A549 [10] it was 9.26%; with A549 [11] it was “Dose-dependent effect”. Moreover, the Activity result in the test with A549 [13] is “Dose-dependent effect”; in the test on A549 [15], 68.7%; in the test with A549 [16] it was “Dose-dependent effect”; with A549 [3] it was 20.4%; in the test on A549 [19] it was “Dose-dependent effect”; in the test on A549 [20] it was 6.55%. In addition, the Activity entry was “Dose-dependent effect” in the test with A549 [22]; “Tde” with A549 [23]; 82.2% in the test with A549 [24]; 9.81% in the test on A549 [25]; 37.9% with A549 [27]; “Dose-dependent effect” in the test on A549 [28]. For the same compound, the IC50 in the test with A549 [1] came to 6.3 µM; in the test with NCI-H1650, 6.8 µM; in [2], 6.1 µM. Also, the outcome (with A549 [5]; in [17]; with A549 [21]; in the test with A549 [26]) was Active. In addition, in test [7], the inhibition entry is “Active”. For the same compound, the outcome (in test [9]; in the test on A549 [12]; in the test on A549 [18]) was inactive. Also, the inhibition result in test [14] was “Dose-dependent effect”.
